Experimental data published in patent US11319326B2, “Tricyclic fused derivatives of 1-(cyclo)alkyl pyrtdin-2-one useful for the treatment of cancer” (JUBILANT BIOSYS LIMITED, priority 2015, dated 2022).

Tested on: MV4-11 cells
Experiment: Anticancer activity: Alamar Blue 3-day proliferation assay
Assay type: cell-based
Details: AML cell line MV4-11, 72 h, read-out: MV4-11 EC50_μM
Method: Anticancer Activity: Alamar Blue Assay
The impact of the compounds on cancer cell proliferation was determined using the AML cell line MV4-11 (ATCC) in a 3-day proliferation assay. MV4-11 cells were maintained in RPMI supplemented with 10% FBS at 37° C., 5% CO2. For compound testing, MV4-11 cells were plated in a 96-well black bottom plate at a density of 15,000 cells/well in 100 μL culture media and incubated at 37° C. overnight. Compound dilution series were prepared in DMSO via a 3-fold serial dilution from 100 μM to 0.005 μM. The DMSO dilution series were then diluted with media, with the final compound concentrations added to the wells ranging from 10 μM to 0.0005 μM. […] The fluorescent readings from the Alamar Blue assay were normalized to the DMSO treated cells and analyzed using the GraphPad Prism software with sigmoidal curve fitting to obtain EC50.

EC50: 13 nM
Compound: CCNC(=O)CC1N=C(c2c(F)cccc2F)c2cc(OC)ccc2-c2cn(C)c(=O)cc21 (racemic) [Compound 38, ±2-(7-(2,6-difluorophenyl)-9-methoxy-2-methyl-3-oxo-3,5-dihydro-2H-benzo[c]pyrido[3,4-e]azepin-5-yl)-N-ethylacetamide]
